{"source": "patent US8440591B2", "about": "“Pesticidal composition comprising synthetic compound useful as nodulation agent of leguminous plants and a fungicide compound” (Bayer Cropscience AG, priority 2006, dated 2013)", "assay_type_in_all_cases": "cell-based", "key": {"Septoria tritici": {"test_system": "Septoria tritici", "test": "In vitro microtest of Septoria tritici", "settings": "3 days incubation", "experimental": "V.8. In vitro microtest of Septoria tritici\nThe microtest was performed in liquid medium with potato-dextrose broth (PDB) using microlitre plates.\n(§1) The active compound is applied as the technical active substance dissolved in methanol. A spore suspension of Septoria tritici was used for inoculation. After 3 days of incubation by darkness under shaking (10 Hrz), the optical density in each cavity was evaluated with the aid of a microtitre plate reader. 0% means an efficacy which corresponds to that of the control, while an efficacy of 100% means that no fungal growth is observed."}, "Gibberella zeae": {"test_system": "Gibberella zeae"}, "Penicillium brevicaule": {"test_system": "Penicillium brevicaule", "test": "In vitro microtest of Penicillium brevicaule (optical density in PDB, microtitre plates)", "settings": "7 days incubation"}, "Coriolus versicolor": {"test_system": "Coriolus versicolor", "test": "In vitro microtest of Coriolus versicolor", "settings": "3 days incubation", "experimental": "V.5. In vitro Microtest of Coriolus versicolor\n(§2) The microtest was performed in liquid medium with potato-dextrose broth (PDB) using microtitre plates.\n(§3) The active compound is applied as the technical active substance dissolved in methanol.\nas §1, with “A” for “The active compound is applied as the technical active substance dissolved in methanol. A”, “mycelium” for “spore”, “Coriolus versicolor” for “Septoria tritici”"}, "Rhizoctonia solani": {"test_system": "Rhizoctonia solani", "test": "In vitro microtest of Rhizoctonia solani", "experimental": "V.10. In vitro Microtest of Rhizoctania solani\nas §2, §3\nA mycelium suspension of Rhizoctonia solani was used for inoculation. After 3 days (combinations A1+B3, A3+B2), 7 days (combination A2+B1), 4 days (combination A4+B2) or 5 days (combination A5+B1) of incubation by darkness under shaking (10 Hrz), the optical density in each cavity was evaluated with the aid of a microtitre plate reader.\n0% means an efficacy which corresponds to that of the control, while an efficacy of 100% means that no fungal growth is observed."}, "Pyricularia oryzae": {"test_system": "Pyricularia oryzae"}, "Botrytis cinerea": {"test_system": "Botrytis cinerea", "test": "In vitro microtest of Botrytis cinerea", "experimental": "V.9. In vitro microtest of Botrytis cinerea\nas §2, §3\n(§4) A spore suspension of Botrytis cinerea was used for inoculation. After 5 days (combination A2+B1), 4 days (combination A3+B3), or 7 days ( combination A5+B1) of incubation by darkness under shaking (10 Hrz), the optical density in each cavity was evaluated with the aid of a microtitre plate reader. 0% means an efficacy which corresponds to that of the control, while an efficacy of 100% means that no fungal growth is observed."}, "Ustilago avenae": {"test_system": "Ustilago avenae", "test": "In vitro microtest of Ustilago avenae", "settings": "1 ppm; 5 days incubation", "experimental": "V.12. In vitro Microtest of Ustilago avenae\nas §2, §3\nas §4, with “Ustilago avenae” for “Botrytis cinerea”, “days” for “days (combination A2+B1), 4 days (combination A3+B3), or 7 days ( combination A5+B1)”"}, "Alternaria mali": {"test_system": "Alternaria mali", "test": "In vitro microtest of Alternaria mali", "settings": "3 ppm; 4 days incubation", "experimental": "V.6. In vitro Microtest of Alternaria mali\nas §2\nas §1, with “Alternaria mali” for “Septoria tritici”, “4” for “3”"}, "Phytophthora cryptogea": {"test_system": "Phytophthora cryptogea", "test": "In vitro microtest of Phytophthora cryptogea", "settings": "3 ppm; 4 days incubation", "experimental": "V.11. In vitro Microtest of Phytophthora cryptogea\nas §2, §3\nas §4, with “mycelium” for “spore”, “Phytophthora cryptogea” for “Botrytis cinerea”, “After” for “After 5 days (combination A2+B1),”, “days” for “days (combination A3+B3), or 7 days ( combination A5+B1)”"}}, "note": "Read-outs that look alike come from different tables or passages of the source."}
{"smiles": "Cc1nn(C)c(F)c1C(=O)Nc1ccccc1C(C)CC(C)C", "note": "(centres unmarked) [A1, N-[2-(1,3-dimethylbutyl)phenyl]-5-fluoro-1,3-dimethyl-1H-pyrazole-4-carboxamide]", "values": [{"measurement": "Efficacy in %", "setting": "Septoria tritici; 0.01 ppm", "value": 4, "unit": "%"}, {"measurement": "Efficacy in %", "setting": "Gibberella zeae; 1 ppm, 4 days incubation", "value": 39, "unit": "%"}, {"measurement": "Efficacy in %", "setting": "Penicillium brevicaule; 0.3 ppm", "value": 37, "unit": "%"}, {"measurement": "Efficacy in %", "setting": "Coriolus versicolor; 0.01 ppm", "value": 97, "unit": "%"}, {"measurement": "Efficacy in %", "setting": "Rhizoctonia solani; 0.003 ppm, 3 days incubation", "value": 79, "unit": "%"}]}
{"smiles": "CCCCCC/C=C\\CCCOc1cccc(C(=O)N[C@@H]2C(O[C@H]3C(O)C(NC(C)=O)C(O[C@@H]4C(CO)O[C@@H](O[C@H]5C(O)C(NC(C)=O)C(OC6C(CO[C@@H]7OC(C)C(O)[C@H](O)[C@H]7OC)OC(O)[C@@H](NC(C)=O)[C@H]6O)O[C@H]5CO)[C@@H](NC(C)=O)C4O)O[C@H]3CO)OC(CO)[C@@H](O)[C@@H]2O)c1", "note": "(some centres unmarked) [B1]", "values": [{"measurement": "Efficacy in %", "setting": "Septoria tritici; 0.000001 ppm", "value": 1, "unit": "%"}, {"measurement": "Efficacy in %", "setting": "Pyricularia oryzae; 0.00001 ppm, 3 days incubation", "value": 2, "unit": "%"}, {"measurement": "Efficacy in %", "setting": "Pyricularia oryzae; 0.00003 ppm, 5 days incubation", "value": 5, "unit": "%"}, {"measurement": "Efficacy in %", "setting": "Botrytis cinerea; 0.00000003 ppm, 7 days incubation", "value": 10, "unit": "%"}, {"measurement": "Efficacy in %", "setting": "Botrytis cinerea; 0.00003 ppm, 5 days incubation", "value": 18, "unit": "%"}, {"measurement": "Efficacy in %", "setting": "Gibberella zeae; 0.000001 ppm, 3 days incubation", "value": 4, "unit": "%"}, {"measurement": "Efficacy in %", "setting": "Gibberella zeae; 0.00001 ppm, 3 days incubation", "value": 12, "unit": "%"}, {"measurement": "Efficacy in %", "setting": "Penicillium brevicaule; 0.00003 ppm", "value": 0, "unit": "%"}, {"measurement": "Efficacy in %", "setting": "Coriolus versicolor; 0.000001 ppm", "value": 22, "unit": "%"}, {"measurement": "Efficacy in %", "setting": "Rhizoctonia solani; 0.00000003 ppm, 5 days incubation", "value": 41, "unit": "%"}, {"measurement": "Efficacy in %", "setting": "Rhizoctonia solani; 0.00001 ppm, 7 days incubation", "value": 9, "unit": "%"}]}
{"smiles": "CON=C(C(=O)OC)c1ccccc1CON=C(C)c1cccc(C(F)(F)F)c1", "note": "[A4, Trifloxystrobin]", "values": [{"measurement": "Efficacy in %", "setting": "Pyricularia oryzae; 0.1 ppm, 3 days incubation", "value": 63, "unit": "%"}, {"measurement": "Efficacy in %", "setting": "Gibberella zeae; 0.1 ppm, 3 days incubation", "value": 88, "unit": "%"}, {"measurement": "Efficacy in %", "setting": "Gibberella zeae; 1 ppm, 5 days incubation", "value": 75, "unit": "%"}, {"measurement": "Efficacy in %", "setting": "Ustilago avenae", "value": 92, "unit": "%"}, {"measurement": "Efficacy in %", "setting": "Rhizoctonia solani; 1 ppm, 4 days incubation", "value": 43, "unit": "%"}]}
{"smiles": "CC(C)(C)C(O)(CCc1ccc(Cl)cc1)Cn1cncn1", "note": "(centres unmarked) [A3, Tebuconazole]", "values": [{"measurement": "Efficacy in %", "setting": "Pyricularia oryzae; 0.3 ppm, 5 days incubation", "value": 96, "unit": "%"}, {"measurement": "Efficacy in %", "setting": "Botrytis cinerea; 0.1 ppm, 4 days incubation", "value": 33, "unit": "%"}, {"measurement": "Efficacy in %", "setting": "Alternaria mali", "value": 97, "unit": "%"}, {"measurement": "Efficacy in %", "setting": "Gibberella zeae; 0.01 ppm, 3 days incubation", "value": 9, "unit": "%"}, {"measurement": "Efficacy in %", "setting": "Rhizoctonia solani; 3 ppm, 3 days incubation", "value": 47, "unit": "%"}]}
{"smiles": "COCC(=O)N(c1c(C)cccc1C)C(C)C(=O)OC", "note": "(centres unmarked) [A5, Metalaxyl]", "values": [{"measurement": "Efficacy in %", "setting": "Botrytis cinerea; 0.0003 ppm, 7 days incubation", "value": 4, "unit": "%"}, {"measurement": "Efficacy in %", "setting": "Rhizoctonia solani; 0.0003 ppm, 5 days incubation", "value": 80, "unit": "%"}]}
{"smiles": "OC(Cc1ccccc1Cl)(Cn1nc[nH]c1=S)C1(Cl)CC1", "note": "(centres unmarked) [A2, Prothioconazole]", "values": [{"measurement": "Efficacy in %", "setting": "Phytophthora cryptogea", "value": 19, "unit": "%"}, {"measurement": "Efficacy in %", "setting": "Botrytis cinerea; 0.3 ppm, 5 days incubation", "value": 40, "unit": "%"}, {"measurement": "Efficacy in %", "setting": "Coriolus versicolor; 0.003 ppm", "value": 48, "unit": "%"}, {"measurement": "Efficacy in %", "setting": "Rhizoctonia solani; 0.1 ppm, 7 days incubation", "value": 50, "unit": "%"}]}
